In experiment [1] the test system is HMEC cells (human mammary epithelial cells). Briefly: Inhibition of cell proliferation, AlamarBlue fluorescent assay, HMEC normal control. It counts as cell-based. The note with it: for inhibitory effects on normal HMEC cells: 10 uM, up to 48 hours; for IC50: Homo sapiens, HMEC, 48 hours, AlamarBlue, normal cell line. The method, then: (§1) The cancer cell lines used in this study included human lung carcinoma (A549), human breast carcinoma (BT20 and MCF-7) and human osteosarcoma (U2OS), with the normal cell lines human peripheral lung epithelial cells (HPL1A) and human mammary epithelial cells (HMEC) serving as controls. A549, BT20, MCF-7, U2OS and HMEC cells were purchased from American Type Culture Collection (ATCC, USA), and HPL1A cells were obtained from Nagoya University, Japan. A549 and BT20 were grown in RPMI-1640 (Sigma), MCF-7 was grown in Dulbecco's Modified Eagle Medium (DMEM) (Sigma) supplemented with 0.01 mg/ml human recombinant insulin (Sigma), U2OS and HMEC were grown in McCoy's 5A (ATCC), and HPL1A was grown in DMEM/F-12K (Sigma). The mediums were supplemented with 10% Fetal Bovine Serum (FBS) (Gibco), 1% penicillin and streptomycin and incubated in a humidified atmosphere with 5% CO2 at 37° C.
(§2) The proliferation inhibition potential of cis- and trans-gnetin H was determined by a fluorescence dye staining method. Cells were seeded in a 96-well tissue culture-treated plate (BD Falcon) at a density of 4000 cells/well, and treated with cis- or trans-gnetin H for 48 hours. AlamarBlue dye (Invitrogen) was used to assess the viability of cells according to the manufacturer's instructions; the fluorescent intensity was read on a SpectraMax M2e microplate reader (Molecular Devices Inc.).
(§3) For the determination of IC50 values, cells were treated with a serial dilution (320 μM, 100 μM, 32 μM, 10 μM, 3.2 μM, and 0.32 μM) of cis- or trans-gnetin H for 48 hours. Cell viability was determined with AlamarBlue dye (Invitrogen) and the IC50 values were calculated using non-linear regression analysis.
(Alamar Blue is a resazurin reagent that responds to reducing activity.)

Experiment [2] deals with mitochondrial cytochrome c in BT20 cells. Briefly: Analysis of cytochrome c by flow cytometry, BT20. The format is cell-based, human. The following applies: 100 μM, 24 hours. On the procedure:
(§4) A549 and BT20 cells were seeded in a 96-well plate (BD Falcon) at a density of 8000 cells/well and treated with 100 μM of cis- or trans-gnetin H for 24 hours. The expression of cytochrome c was evaluated using the FlowCellect Cytochrome c Kit (Millipore) according to the manufacturer's instructions. Cells were stained with either Anti-IgG1-FITC Isotype control or Anti-Cytochrome c-FITC, and data was acquired and analyzed using the Guava Flow Cytometer (Millipore).
A general note: In flow cytometry, cells or beads pass a laser one at a time.

Experiment [3] deals with mitochondrial cytochrome c in A549 cells. The experiment can be described thus: Analysis of cytochrome c by flow cytometry, A549. The note with it: 100 μM, 24 hours. It counts as cell-based, human. On the procedure: as §4
The subject of experiment [4] is A549 cells (human lung carcinoma). The experiment can be described thus: Inhibition of cell proliferation, AlamarBlue fluorescent assay, A549. It counts as cell-based. The following applies: for inhibition at 10 µM: 48-hours treatment; for IC50: 48 hours, AlamarBlue, cancer cell line. The method, then:
as §1, §2, §3

Experiment [5] deals with BT20 cells (human breast carcinoma). The experiment can be described thus: Inhibition of cell proliferation, AlamarBlue fluorescent assay, BT20. The format is cell-based. The following applies: for inhibition at 10 µM: BT-20, 10 uM, 48-hours treatment; for IC50: BT-20, 48 hours, AlamarBlue, cancer cell line. On the procedure: as §1, §2, §3
The test system of experiment [6] is normal cells (HPL1A, HMEC). Briefly: IC50 determination, normal cell lines. It counts as cell-based. The following applies: Homo sapiens; HPL1A and HMEC, 48 hours; read-out: IC50 values in normal cells (range over cell lines). The method, then:
as §1
The proliferation inhibition potential of cis- and trans-gnetin H was determined by a fluorescence dye staining method. Cells were seeded in a 96-well tissue culture-treated plate (BD Falcon) at a density of 4000 cells/well, and treated with cis- or trans-gnetin H for 48 hours. AlamarBlue dye (Invitrogen) was used to assess the viability of cells according to the manufacturer's instructions; the fluorescent intensity was read on a SpectraMax M2e microplate reader (Molecular Devices Inc.). […]

The subject of the next experiment is A549 cells. Briefly: Multi-parameter cytotoxicity measurement, Arrayscan VTI HCS Reader. It counts as cell-based, human. The note with it: for mitochondria transmembrane potential: A549, after both 24 hrs and 48 hrs. On the procedure:
A549 cells were seeded in a 96-well plate (BD Falcon) at a density of 4000 cells/well, and then treated with different concentrations ([…] 100 μM) of cis- or trans-gnetin H for 24 hours and 48 hours. Non-treated cells and cells treated with 100 μM Valinomycin were used as negative and positive controls. After treatment, the cells were stained with a mixture of fluorescent dyes including Hoechst 33342 (blue florescence), cell permeability dye (green florescence) and mitochondrial membrane potential dye (red florescence) (Thermo Scientific). The three dyes allow changes in nuclear morphology, cell membrane permeability and mitochondrial trans-membrane potential to be determined. The cells were fixed and washed, and images for each fluoroprobe were acquired at different channels using suitable filters with a 20× objective and analyzed on the Arrayscan VTI HCS Reader (Thermo Scientific). The Cell Health Profiling BioApplication software (Thermo Scientific) was used for image acquisition and analysis. For each well, at least 400 cells were automatically acquired and analyzed. The average fluorescent intensity was used to quantify changes in each channel and each experiment was performed in triplicate.

In experiment [7] the test system is caspase 3/7 in A549 cells. The experiment can be described thus: Caspase 3/7 activation assay (Caspase-Glo 3/7). The following applies: 100 μM. The format is cell-based, human. The method, then: Caspase 3/7 activity was analyzed using an in-situ luminescent marker. A549 and BT20 cells were seeded in a white 96-well plate (Greiner) at a density of 8000 cells/well, and treated with 100 μM cis- or trans-gnetin H for 24 hours. Caspase activity was then determined using the Caspase-Glo 3/7 Assay (Promega) according to the manufacturer's instructions. The luminescence of each sample was measured using a SpectraMax M2e Microplate Reader (Molecular Devices Inc.).

Experiment [8] relates to p65 (RelA) nuclear translocation in THP-1 cells. The experiment can be described thus: Indirect immunofluorescence for NF-κB nuclear translocation. The format is cell-based, human. The note with it: pretreated 1 h, LPS 30 min; Bay 11-7082 10 μM. On the procedure: THP-1 cells were maintained in RPMI 1640 medium supplemented with 10% complement-inactivated FBS and 1% penicillin/streptomycin (complete culture medium) at 37° C. with 5% CO2 supplemented. Cell concentrations were adjusted to desired concentrations for each experiment by centrifugation at 500×g for 5 min and resuspended in complete culture medium with 100 nM of PMA. Cell concentration was adjusted to 5×10^5 cells/ml for all assays and 2.5×10^5 cells/ml were used for NF-κB nuclear translocation assay. Cells were seeded onto 96-, 24-, or 12-well plates and incubated for 48 to 72 h to allow for differentiation. Cells were washed with serum-free RPMI 1640 medium before each experiment to remove the undifferentiated cells.
Differentiated THP-1 cells were pretreated with 50 μM of cis-gnetin H, trans-gnetin H, or 10 μM of Bay 11-7082 for 1 h and stimulated with 1 μg/ml of LPS for 30 min. Bay 11-7082 is a compound that inhibits IKK α/β and IκB α phosphorylation and was used as a positive control (Juliana et al., 2010, J. Biol. Chem., 285:9792-802). Treated cells were fixed, permeabilized, blocked, and stained with NF-κB, p65 primary antibody, Dylight 488 conjugated secondary antibody, and Hoechst 33342 dye, sequentially. The Hoechst and DyLight fluorophores detect changes in nuclear morphology (blue fluorescence) and NF-κB distribution (green fluorescence) respectively. Nuclear Translocation Bioapplication software on the Arrayscan VTI reader was used for image acquisition and analysis. For each well, at least 400 cells were automatically acquired and analyzed. The translocation index was calculated by measuring the average intensity difference of NF-icB between the identified cytoplasmic region and nuclear region.

One may read the IC50 as the concentration at which inhibition is half-maximal. As usually defined, the inhibition is the share of the control response that was lost under treatment. Low values mean little suppression, high ones strong suppression.

SMILES strings stand for the structures.

`Oc1ccc(/C=C\c2c3c(cc4c2[C@H](c2cc(O)cc(O)c2)[C@@H](c2ccc(O)cc2)O4)O[C@H](c2ccc(O)cc2)[C@H]3c2cc(O)cc(O)c2)cc1` [cis-gnetin H]: in [1], the “inhibitory effects on normal HMEC cells” value is “no such obvious inhibitory effects”. Further, the IC50 was 26.7 µM in [1], 2.8 µM in experiment [4], 2.15 µM in experiment [5] and 25.9 to 91 µM in experiment [6]. Further, in experiment [2], the “cytochrome c release in BT20” value was “release of mitochondrial cytochrome c”. The “cytochrome c release in A549” value in [3] is listed as “release of mitochondrial cytochrome c”. Besides, the inhibition at 10 µM in [4] and in experiment [5] was approximately 99% each time. For the same compound, the nuclear size entry is recorded as “no alternation in nuclear size” with A549 cells (A549, 24 hrs treatment) and “reduction in nuclear size” in the experiment with A549 cells (A549, 48 hrs treatment). Also, in the experiment on A549 cells, the mitochondria transmembrane potential result was “reduction in the mitochondria transmembrane potential”. Also, the “activities of caspase 3/7 compared with untreated A549 cells” value in experiment [7] is given as 3.65 fold. In addition, in experiment [8], the p65 nuclear translocation result is listed as “inhibited the p65 nuclear translocation”.
On to `Oc1ccc(/C=C/c2c3c(cc4c2[C@H](c2cc(O)cc(O)c2)[C@@H](c2ccc(O)cc2)O4)O[C@H](c2ccc(O)cc2)[C@H]3c2cc(O)cc(O)c2)cc1` [trans-gnetin H], for which the “inhibitory effects on normal HMEC cells” value in experiment [1] is listed as “no such obvious inhibitory effects”. The IC50 in experiment [1] was 25.9 µM; in [4] it was 2.6 µM; in [5], 1.35 µM; in experiment [6] it was 25.9 to 91 µM. The “cytochrome c release in BT20” value in experiment [2] is recorded as “release of mitochondrial cytochrome c”. For the same compound, in [3], the “cytochrome c release in A549” value is “release of mitochondrial cytochrome c”. Besides, the inhibition at 10 µM in experiment [4] and in [5] was approximately 99% in each case. In addition, the nuclear size entry with A549 cells (A549, 24 hrs treatment) was “no alternation in nuclear size”; in the experiment on A549 cells (A549, 48 hrs treatment), “reduction in nuclear size”. In the experiment with A549 cells, the mitochondria transmembrane potential entry is “reduction in the mitochondria transmembrane potential”. Also, in [7], the “activities of caspase 3/7 compared with untreated A549 cells” value was 2.7 fold. Besides, in experiment [8], the p65 nuclear translocation result is listed as “inhibited the p65 nuclear translocation”.

Values taken from patent US11007169B2, “Cis-gnetin H and trans-gnetin H as therapeutic agents” (MIDDLE TENNESSEE STATE UNIVERSITY, priority 2014, dated 2021).
